Source: patent US11667602B2, “Compounds and their use” (AstraZeneca AB, priority 2020, dated 2023)
Converted amounts (≈) assume the structure as drawn. Where two headings read alike, the source gives them in different places.

Legend:
[1] = Rat Hepatocyte Stability (Test E); type: in vitro ADME; conditions: rat, hepatocytes, geometric mean if run multiple times
Outline: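 Run per the published AstraZeneca-type rat hepatocyte stability protocol (Wernevik et al. panel). Values are mean intrinsic clearance, Clint in μl/min/10^6 cells; geometric mean used for repeated runs.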

Solubility (Test F) = type: physicochemical; conditions: arithmetic mean if run multiple times
Protocol: The assay was conducted according to the Solubility Assay described in pages 164-167 of Wernevik, J. et al., “A Fully Integrated Assay Panel for Early Drug Metabolism and Pharmacokinetics Profiling”, Assay and Drug Development Technologies, 2020, 18(4), 157-179. Data are reported in Table 36 as solubility ([…]. Where the assay was run multiple times for the same compound, the arithmetic mean is reported.

human RXFP1 = target: T1, human RXFP1 (Homo sapiens, UniProt Q9HBX9); assay: RXFP1 Hu cAMP (Test A); type: cell-based; design: expressed in transfected cells; host or cells: Jump-In T-REx CHO-K1 cells (ThermoFisher), induced with 10 ng/ml doxycycline for 24 h
T1 sequence (Q9HBX9 1-757): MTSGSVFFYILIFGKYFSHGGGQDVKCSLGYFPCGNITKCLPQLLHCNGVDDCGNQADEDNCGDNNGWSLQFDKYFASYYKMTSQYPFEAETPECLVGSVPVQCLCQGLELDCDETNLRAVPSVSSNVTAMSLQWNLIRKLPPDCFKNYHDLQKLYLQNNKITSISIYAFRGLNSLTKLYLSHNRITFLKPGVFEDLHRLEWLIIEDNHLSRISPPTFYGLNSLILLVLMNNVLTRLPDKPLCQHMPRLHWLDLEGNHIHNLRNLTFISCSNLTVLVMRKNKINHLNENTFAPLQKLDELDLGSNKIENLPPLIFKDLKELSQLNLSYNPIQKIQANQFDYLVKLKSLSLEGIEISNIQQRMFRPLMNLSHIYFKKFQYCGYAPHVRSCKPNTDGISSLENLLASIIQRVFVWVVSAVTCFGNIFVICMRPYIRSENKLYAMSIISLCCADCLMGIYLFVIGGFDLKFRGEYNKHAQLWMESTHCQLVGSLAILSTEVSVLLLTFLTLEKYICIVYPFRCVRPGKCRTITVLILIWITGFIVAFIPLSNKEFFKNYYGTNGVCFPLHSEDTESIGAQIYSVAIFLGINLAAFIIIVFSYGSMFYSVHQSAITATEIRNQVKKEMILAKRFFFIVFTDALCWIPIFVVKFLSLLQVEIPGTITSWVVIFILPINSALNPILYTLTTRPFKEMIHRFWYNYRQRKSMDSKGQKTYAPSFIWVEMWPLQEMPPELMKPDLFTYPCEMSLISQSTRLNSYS
Outline: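 Cells: CHO-K1 stably carrying human RXFP1, expressed after 24 h 10 ng/ml doxycycline; 0.5 mM IBMX final, HTRF detection after 2 h at room temperature.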

[2] = Human Plasma Protein Binding (Test B); type: in vitro ADME; conditions: fraction unbound (fu)
Outline: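 Human plasma protein binding run per the published Wernevik et al. (2020) integrated DMPK panel protocol. Values are fraction unbound (fu, % free); repeat runs averaged arithmetically.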

[3] = Human Liver Microsomal Stability (Test C); type: in vitro ADME; conditions: human, liver microsomes
Outline: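 Human liver microsome incubation per the Wernevik et al. integrated DMPK panel protocol. Intrinsic clearance reported as CLint in μl/min/mg protein, averaged arithmetically over repeat runs.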

[4] = Human Hepatocyte Stability (Test D); type: in vitro ADME; conditions: human, cryopreserved pooled human hepatocytes (LiverPool 10-Donor), geometric mean if run multiple times
Outline: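 Pooled 10-donor cryopreserved human hepatocytes (≥80% viable) in L-15 medium at 0.25×10^6 cells per 0.25 mL well. Compound added from 100 μM acetonitrile solution; incubated at 37 °C with shaking, acetonitrile-quenched, LC-MS analysed. Clint (μL/min/10^6 cells) from ln % parent vs time slope; geometric mean of repeat runs.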

[5] = RXFP1 Hu cAMP, read-out: Test A EC50

SMILES	hepatocyte CLint [1] [µL/min/1e6 cells]	solubility (Solubility (Test F)) [µM]	Test A Sinf (human RXFP1; RXFP1 Hu cAMP) [%]	EC50 (human RXFP1; [5]) [nM]	Test B Human Plasma Protein Binding (% free) [2] [% free]	microsomal CLint [3] [µL/min/mg]	hepatocyte CLint at 1 µM [4] [µL/min/1e6 cells]	EC50 (human RXFP1; Test A EC50, RXFP1 Hu cAMP) [nM]
COc1cc(C#N)c(O[C@H]2CC[C@@](C)(C(=O)O)CC2)cc1C(=O)N[C@@H]1CCC[C@@H]1C(=O)NCC1(C)CCC1 [Example 360]	17	> 1000	101	100	15	8.4	3.6	–
COc1cc(F)c(O[C@H]2CC[C@@](CO)(C(=O)O)CC2)cc1C(=O)N[C@@H]1[C@H]2CC[C@H](C2)[C@@H]1C(=O)NCC1(C(F)(F)F)CCC1 [Example 365]	15	980 (≈ 602 µg/mL)	113	57	7.8	14	9.3	–
COc1c(F)cc(O[C@H]2CC[C@@](C)(C(=O)O)CC2)cc1C(=O)N[C@@H]1[C@H]2CC[C@H](C2)[C@@H]1C(=O)NCC1(C)CCC1 [Example 374]	21	680 (≈ 370 µg/mL)	–	–	2.9	44	5.3	44
COc1ccc(O[C@H]2CC[C@@](C)(C(=O)O)CC2)cc1C(=O)N[C@@H]1[C@H]2CC[C@H](C2)[C@@H]1C(=O)NCC1(C)CCC1 [Example 381]	21	1000 (≈ 527 µg/mL)	–	–	3.8	36	6.1	110
CCOc1cc(F)c(O[C@H]2CC[C@@](C)(C(=O)O)CC2)cc1C(=O)N[C@@H]1[C@H]2CC[C@H](C2)[C@@H]1C(=O)NCC1(C)CCC1 [Example 385]	19	780 (≈ 436 µg/mL)	106	–	4.1	50	8	–
CC1(CNC(=O)[C@H]2[C@@H]3CC[C@@H](C3)[C@H]2NC(=O)c2cc(O[C@H]3CC[C@@](C)(C(=O)O)CC3)c(C#N)cc2F)CCC1 [Example 401]	17	1000 (≈ 540 µg/mL)	115	–	2.7	16	5.4	49
COc1c(C#N)cc(O[C@H]2CC[C@@](C)(C(=O)O)CC2)cc1C(=O)N[C@@H]1[C@H]2CC[C@H](C2)[C@@H]1C(=O)NCC1(C)CCC1 [Example 404]	19	1000 (≈ 552 µg/mL)	–	–	2.3	50	11	86
CC1(CNC(=O)[C@H]2[C@@H]3CC[C@@H](C3)[C@H]2NC(=O)c2cc(O[C@H]3CC[C@@](C)(C(=O)O)CC3)c(Cl)cc2F)CCC1 [Example 408]	20	670 (≈ 368 µg/mL)	106	24	0.87	32	6.5	–
COc1cc(Cl)c(O[C@H]2CC[C@@](C)(C(=O)O)CC2)cc1C(=O)N[C@@H]1[C@H]2CC[C@H](C2)[C@@H]1C(=O)NCC(C)(C)C(F)(F)F [Example 409]	7.1	960 (≈ 579 µg/mL)	107	15	3.4	18	3.1	–
COc1cc(Cl)c(O[C@H]2CC[C@@](C)(C(=O)O)CC2)cc1C(=O)N[C@@H]1[C@H]2CC[C@H](C2)[C@@H]1C(=O)NC12CC(F)(C1)C2 [Example 411]	17	710 (≈ 400 µg/mL)	108	24	1.8	7.9	2.1	–
COc1cc(Cl)c(O[C@H]2CC[C@@](C)(C(=O)O)CC2)cc1C(=O)N[C@@H]1[C@H]2CC[C@H](C2)[C@@H]1C(=O)NCC(C)(C)C [Example 412]	24	930 (≈ 511 µg/mL)	110	37	5.3	13	2.6	–
CC1(CNC(=O)[C@H]2[C@H]3CC[C@H](C3)[C@H]2NC(=O)c2cc(O[C@H]3CC[C@@](C)(C(=O)O)CC3)c(C#N)cc2F)CCC1 [Example 413]	21	820 (≈ 443 µg/mL)	107	–	1.5	9.3	4.5	16
COc1cc(F)c(O[C@H]2CC[C@@](C)(C(=O)O)CC2)cc1C(=O)N[C@H]1[C@@H](C(=O)NCC2(C)CCC2)[C@@H]2C=C[C@H]1C2 [Example 417]	17	900 (≈ 488 µg/mL)	102	9.8	4.8	24	5.1	–
COc1cc(F)c(OCCCCCC(=O)O)cc1C(=O)N[C@@H]1[C@H]2CC[C@H](C2)[C@@H]1C(=O)Nc1cccc(S(=O)(=O)C(F)(F)F)c1 [Example 435, 6-(2-Fluoro-4-methoxy-5-(((1S,2R,3S,4R)-3-((3-((trifluoromethyl)sulfonyl)phenyl)carbamoyl)bicyclo[2.2.1]heptan-2-yl)carbamoyl)phenoxy)hexanoic acid]	> 300	880 (≈ 567 µg/mL)	103	–	1.4	63	150	–
COc1cc(F)c(OCCCCCCC(=O)O)cc1C(=O)N[C@@H]1[C@H]2CC[C@H](C2)[C@@H]1C(=O)Nc1cccc(S(=O)(=O)C(F)(F)F)c1 [Example 436]	> 300	220 (≈ 145 µg/mL)	115	540	0.82	70	97	–
COc1cc(F)c(O[C@H]2C[C@H](C(=O)O)C2)cc1C(=O)NC1[C@H]2CC[C@H](C2)[C@@H]1C(=O)Nc1cccc(S(=O)(=O)C(F)(F)F)c1 (stereo partly shown) [Example 443]	21	760 (≈ 478 µg/mL)	101	540	1.5	31	26	–
COc1cc(F)c(O[C@H]2C[C@@H](C(=O)O)C2)cc1C(=O)NC1[C@H]2CC[C@H](C2)[C@@H]1C(=O)Nc1cccc(S(=O)(=O)C(F)(F)F)c1 (stereo partly shown) [Example 444]	22	> 1000	117	120	2.5	18	15	–
COC[C@]1(C(=O)O)CC[C@@H](Oc2cc(C(=O)N[C@@H]3[C@H]4CC[C@H](C4)[C@@H]3C(=O)Nc3cccc(S(=O)(=O)C(F)(F)F)c3)c(OC)cc2F)CC1 [Example 482]	78	> 1000	112	11	1.5	56	18	–
